One data set relates to thrombin generation. As to the kind of experiment: Example 3: thrombin generation by calibrated automated thrombogram (CAT) in plasma. To be noted: eight weeks. The data set is classed as in vivo, mice. The method, then:
Thrombin generation was measured in platelet-poor mice plasma using calibrated automated thrombography (CAT) technique as described in Hemker H C, Giesen P, Al Dieri R, Regnault V, de Smedt E, Wagenvoord R, et al. Calibrated automated thrombin generation measurement in clotting plasma. Pathophysiol Haemost Thromb 2003; 33:4-15. doi:71636. Thrombin generation was activated by mixing 21 μL of diluted plasma (1:1 with BSA5 buffer) with 7 μIL of fluorogenic substrate (Z-Gly-Gly-Arg-AMC, 16.6 mM) and 14 μL of trigger solution containing phospholipids, tissue factor and CaCl2 (4 μM, 1 pM and 16.6 mM, respectively). In the calibration wells, the 14 μL of reagents were replaced with calibrator (102 nM). Immediately after the activation, 5 μL of the mixture was pipetted on paper disks in a flat bottom 96-well polystyrene plate and covered with 40 μL of mineral oil. Fluorescent signals were measured using the Fluoroskan Ascent software (Thermo Labsystems, Helsinki, Finland) and transformed into thrombin concentration as described in Hemker H C, Kremers R. Data management in Thrombin Generation. Thromb Res 2013; 131:3-11. doi:10.1016/j.thromres.2012.10.011. The parameters analyzed included endogenous thrombin potential (ETP), peak thrombin concentration (peak), and lag time.

The subject of data set [1] is ApoE/LDLR−/− mice. As to the kind of experiment: Example 3: nitrite and nitrate concentration in plasma, older mice. As to conditions: eight weeks. It is filed as in vivo.
The subject of data set [2] is ApoE/LDLR−/− mice. As to the kind of experiment: Example 3: MRI assessment of Ach response in BCA and LCA, older mice with advanced atherosclerosis. To be noted: low dose 0.03 mg/kg b.w/day, eight weeks, 24-week-old mice; listed as vitamin K2, 0.03 mg/kg/day. It is filed as in vivo. The method, then:
In a second part of the study, the effects of a low dose (0.03 mg/kg b.w./day) as well as a high doses (10 mg/kg b.w./day) of vitamin K2 (MK-7) on endothelial function in ApoE/LDLR−/−mice with pre-established atherosclerosis were assessed.
Magnetic resonance imaging (MRI) experiments were performed using a 9.4T scanner (BioSpec 94/20 USR, Bruker, Germany) located in the Department of Magnetic Resonance Imaging, Institute of Nuclear Physics, Polish Academy of Sciences in Krakow. During the experiment, mice were anaesthetized using isoflurane (Aerrane, Baxter Sp. z o. o., Poland, 1.7 vol %) in an oxygen and air (1:2) mixture and imaged in the supine position. Activity of the heart, respiration, and body temperature (maintained at 37° C. using circulating warm water) were monitored using a Monitoring and Gating System (SA Inc., Stony Brook, N.Y., USA). […]
Vasomotor response was examined by comparing two time-resolved 3D images of the vessels prior to and 25 minutes after intraperitoneal Ach administration (Sigma-Aldrich, Poznan Poland: 50 μl, 16.6 mg/kg), as well as prior to and 5 minutes after vessel occlusion. […] End-diastolic volumes of vessels were analyzed using ImageJ software 1.46r (NIH Bethesda, Md., USA) and scripts written in Matlab (MathWorks, Natick, Mass., USA). […]

The subject of data set [3] is endothelial nitric oxide synthase (eNOS)-dependent nitric oxide (NO) production. The data set is described as follows: Example 3: endothelial NO production in ex vivo aorta by EPR spin-trapping. To be noted: 0.05 mg/kg b.w./day, vs untreated age-matched mice. The source says:
For measurements of endothelial nitric oxide synthase (eNOS)-dependent nitric oxide (NO) production, EPR spin-trapping with diethyldithiocarbamic acid sodium salt (DETC) was used ex vivo, as described in Przyborowski K, Proniewski B, Czarny J, Smeda M, Sitek B, Zakrzewska A, et al. Vascular Nitric Oxide-Superoxide Balance and Thrombus Formation after Acute Exercise. Med Sci Sport Exerc 2018:1. doi:10.1249/MSS.0000000000001589, with minor modifications. Isolated aorta cleared from surrounding tissue was opened longitudinally and preincubated with 10 μM L-NIL (N6-(1-Iminoethyl)-lysine, hydrochloride) in Krebs-HEPES buffer for 30 minutes at 37° C. in a well of a 48-well plate. Next, 250 μL of Fe(DETC)2 colloid was added and aorta was stimulated with calcium ionophore A23187 (the final concentration was 1 μM) and subsequently, incubated for 90 minutes at 37° C. Finally, aorta was weighed and frozen in liquid nitrogen (suspended in fresh buffer) into the middle of a 400 μL column of Krebs-Hepes buffer and stored at −80° C. until measured. EPR spectra were obtained using an X-band EPR spectrometer (EMX Plus, Bruker, Germany), equipped with a rectangular resonator cavity H102. Signals were quantified by measuring the total amplitude of the NO—Fe(DETC)2 after correction of baseline. The quantitative results of NO production assessed by EPR were expressed in AU/mg of tissue.

For data set [4] the following is noted: mouse, in vivo.

Molecules are shown by their SMILES.

Take `CC(C)=CCC/C(C)=C/CC/C(C)=C/CC/C(C)=C/CC/C(C)=C/CC/C(C)=C/CC/C(C)=C/CC1=C(C)C(=O)c2ccccc2C1=O` [MK-7, menaquinone-7]: in the data set with thrombin generation (0.03 mg/kg b.w./day), the thrombin generation entry is “did not affect”. The thrombin generation result in the data set with thrombin generation (10 mg/kg b.w./day) was “did not affect”. For the same molecule, the “concentration of NO3− in plasma” value in the data set on ApoE/LDLR−/− mice [1] (0.03 mg/kg b.w./day) is listed as “did not change significantly”. The “concentration of NO3− in plasma” value with ApoE/LDLR−/− mice [1] (10 mg/kg b.w./day) is “did not change significantly”. Moreover, the “increase in NO2− concentration in plasma” value in the data set with ApoE/LDLR−/− mice [1] (high dose 10 mg/kg b.w./day) is given as roughly 42%. Besides, in the data set with ApoE/LDLR−/− mice [1] (low dose 0.03 mg/kg b.w./day), the “increase in NO2− concentration in plasma” value is reported as “about 58%”. Besides, the “volume change of LCA after Ach injection” value with ApoE/LDLR−/− mice [2] was roughly −3%. The “nitric oxide production in ex vivo aorta measured by EPR” value in data set [3] is reported as “increased”. In data set [4], the “K1 2,3-epoxide plasma concentration” value is on record as “tent to decrease” and the “vitamin K1 plasma concentration” value is given as “tent to decrease”. Further, in data set [4] (5 mg/kg/day), the “concentration of MK4 2,3-epoxide in plasma” value is reported as “maintained at similar level”, the “plasma concentration of K2 (MK-7)” value was “dose-dependent increase” and the “plasma concentration of MK-4” value is given as “dose-dependent increase”.

(Values after US11911349B2, “Rapidly improving vascular conditions by administering vitamin K” (NATTOPHARMA AS, priority 2018, dated 2024).)
